Measured values taken from US4642341A, “Carbapenem antibiotics” (priority 1985, dated 1987).
In brackets after ≈: the same amount, converted by molar mass.

Columns and labels:
S. pyogenes A-9604 = test: Minimum Inhibitory Concentration, tube dilution; assay type: cell-based; details: Streptococcus pyogenes, A9604, overnight 37° C.; table 6
[1] = system: S. aureus A-9606 (Pen-res.); test: Minimum Inhibitory Concentration, tube dilution; assay type: cell-based; details: Staphylococcus aureus, Pen-res; table 6
[2] = Half-life in phosphate buffer pH 7.4; assay type: physicochemical; details: phosphate buffer, pH 7.4, t1/2 (half-life)
Method: To a solution of p-nitrobenzyl 3-[2-(1-pyridinium)ethylthio)]-6α[1-(R)-hydroxyethyl]-7-oxo-1-azabicyclo(3.2.0)hept-2-ene-carboxylate diphenylphosphate (0.16 g, 0.22 mmol) in wet tetrahydrofuran (10mL) was added ether (10mL), potassium phosphate monobasic-sodium hydroxide buffer pH 7.4 (16 mL, 0.05 M) and 10% palladium on charcoal (0.16 g). The resulting mixture was hydrogenated under 40 psi for 1 h at 25° C. The two phases were separated and the organic phase was extracted with water (2×3 mL). The aqeuous solutions were combined, washed with ether (2×10 ml) and poured on top of a column (1.5×6.2 cm) pf μ-bondapak C-18 after the traces of organic solvents have been removed under vacuum. Elution of the column with water gave after lyophylization of the appropriate fractions a yellowish powder 0.062 g (84%), ir (KBr) .nu.max : 3700-3000 (OH), 1755 (C--O of β-lactam), 1630 (pyridinium), 1590 cm^-1 (carboxylate), ^1 Hmr (D2 O): 1.22 (3H, d, J=6.4 Hz, CH3 CHOH), 2.92 (d, J=9.1 Hz, H-4), 2.97 (d, J=9.1 Hz, H-4), 3.20 (dd, J=2.5 Hz, J=6.1 Hz, H-6), 3.44 (t, J=6.0 Hz, CH2 S), 3.93 (dd, J=9.1 Hz, J=2.5 Hz, H-5), 4.82 (t, J=6.0 Hz, CH2 N^+), 8.04 (m, Hm of pyridinium), 8.5 (m, Hp of pyridinium), 8.82 (dd, J=3.2. Hz, J=1.1 Hz, Ho of pyridinium), uv (H2 O) λ max : 259 (ε5800), 296 (ε7030) mμ, .tau.1/2 =13.5 h (measured at a concentration of 10^-4 M in phosphate buffer pH 7.4 at 36.8° C.).

H. influenzae A-9833 = test: Minimum Inhibitory Concentration, tube dilution; assay type: cell-based; details: Haemophilus influenzae, A9833; overnight 37° C.; table 6; read-out: MIC
P. aeruginosa A9843A = test: animal or person; assay type: in vivo, mice; details: Pseudomonas aeruginosa, in Mus musculus, im, 3.5 h, read-out: PD50 /treatment
Method: (§1) Drugs were administered i.m. 0 to 2 hours post-infection (A9606) or 1 and 3.5 hours post-infection for the others.

K. pneumoniae A20468 = test: Minimum Inhibitory Concentration, tube dilution; assay type: cell-based; details: Klebsiella pneumoniae, A20468
[3] = system: S. aureus A15097 (Meth-res.); test: Minimum Inhibitory Concentration, tube dilution; assay type: cell-based; details: Staphylococcus aureus, table 6
B. fragilis A22696 = test: Minimum Inhibitory Concentration, tube dilution; assay type: cell-based; details: Bacteroides fragilis
[4] = Pharmacokinetic parameters in the mouse after intramuscular dose; assay type: in vivo, mice; details: im, 20 mg/kg
Text: Also shown is the urinary recovery in the mice.
Compounds were solubilized in 0.1 M phosphate buffer pH 7.

S. faecalis A20688 = test: Minimum Inhibitory Concentration, tube dilution; assay type: cell-based; details: Enterococcus faecalis, A20688, overnight 37° C.; table 6; read-out: MIC
P. aeruginosa A21213 = test: Minimum Inhibitory Concentration, tube dilution; assay type: cell-based; details: Pseudomonas aeruginosa, A21213
P. mirabilis A-9900 = test: Minimum Inhibitory Concentration, tube dilution; assay type: cell-based; details: Proteus mirabilis, A9900, overnight 37° C.; table 6
E. coli A15119 = test: Minimum Inhibitory Concentration, tube dilution; assay type: cell-based; details: Escherichia coli, A15119, overnight 37° C.; table 6
M. morganii A15153 = test: Minimum Inhibitory Concentration, tube dilution; assay type: cell-based; details: Morganella morganii, A15153, overnight 37° C.; table 6
S. aureus A9606 = test: Protective effect, intramuscular treatment of infected mice (table 7); assay type: in vivo; details: Staphylococcus aureus, A9606, im; i.m. 0 to 2 hours post-infection; ~1×10^9 organisms i.p.; read-out: PD50 /treatment
Method: as §1

P. aeruginosa A20481 = test: as above; assay type: in vivo; details: Pseudomonas aeruginosa, A20481, im; i.m. 1 and 3.5 hours post-infection; ~1×10^5 organisms i.p.; read-out: PD50 /treatment
Method: as §1

P. mirabilis A9900 = test: as above; assay type: in vivo; details: Proteus mirabilis, A9900, im; i.m. 1 and 3.5 hours post-infection; ~1×10^7 organisms i.p.; read-out: PD50 /treatment
Method: as §1

P. vulgaris A21559 = test: Minimum Inhibitory Concentration, tube dilution; assay type: cell-based; details: Proteus vulgaris, A21559, overnight 37° C.; table 6
S. marcescens A20019 = test: Minimum Inhibitory Concentration, tube dilution; assay type: cell-based; details: Serratia marcescens, A20019, overnight 37° C.; table 6
S. aureus A-9537 = test: Minimum Inhibitory Concentration, tube dilution; assay type: cell-based; details: Staphylococcus aureus, A9537, overnight 37° C.; table 6; read-out: MIC
B. fragilis A22862 = test: Minimum Inhibitory Concentration, tube dilution; assay type: cell-based; details: Bacteroides fragilis, overnight 37° C., table 6
H. influenzae A21518 = test: Minimum Inhibitory Concentration, tube dilution; assay type: cell-based; details: Haemophilus influenzae, overnight 37° C., table 6
E. coli A20341-1 = test: Minimum Inhibitory Concentration, tube dilution; assay type: cell-based; details: Escherichia coli, A203411, overnight 37° C.; table 6
S. pneumoniae A-9585 = test: Minimum Inhibitory Concentration, tube dilution; assay type: cell-based; details: Streptococcus pneumoniae, A9585, overnight 37° C.; table 6
P. aeruginosa A-9843A = test: Minimum Inhibitory Concentration, tube dilution; assay type: cell-based; details: Pseudomonas aeruginosa, A9843A, overnight 37° C.; table 6; read-out: MIC

SMILES: C[C@@H](O)[C@H]1C(=O)N2C(C(=O)[O-])=C(SCC[n+]3ccc(CO)cc3)C[C@H]12 [Example 6, (5R, 6S)-3-[2-(4-hydroxymethylpyridinio)ethylthio]-6-[1-(R)-hydroxyethyl]-7-oxo-1-azabicyclo[3.2.0]hept-2-ene-2-carboxylate]
- MIC (S. pyogenes A-9604): 0.03 µg/mL (≈ 0.0823 µM)
- MIC [1]: 0.03 µg/mL (≈ 0.0823 µM)
- half-life [2]: 14.5 h
- MIC (H. influenzae A-9833): > 32 µg/mL
- ED50 (P. aeruginosa A9843A): 0.9 mg/kg
- MIC (K. pneumoniae A20468): 0.5 µg/mL (≈ 1.37 µM)
- MIC [3]: > 63 µg/mL
- MIC (B. fragilis A22696): 0.5 µg/mL (≈ 1.37 µM)
- AUC ([4]; blood): 7700 ng·h/mL
- Cmax ([4]; blood): 15200 ng/mL
- half-life ([4]; blood, read-out: T1/2 (blood)): 0.167 h
- dose excreted ([4]; urine, read-out: Urine Recovery): 38 ± 13%
- MIC (S. faecalis A20688): 1 µg/mL (≈ 2.74 µM)
- MIC (P. aeruginosa A21213): 0.5 µg/mL (≈ 1.37 µM)
- MIC (P. mirabilis A-9900): 0.06 µg/mL (≈ 0.165 µM)
- MIC (E. coli A15119): 0.03 µg/mL (≈ 0.0823 µM)
- MIC (M. morganii A15153): 0.03 µg/mL (≈ 0.0823 µM)
- ED50 (S. aureus A9606): ~3 mg/kg
- ED50 (P. aeruginosa A20481): 0.6 mg/kg
- ED50 (P. mirabilis A9900): ~16 mg/kg
- MIC (P. vulgaris A21559): 0.03 µg/mL (≈ 0.0823 µM)
- MIC (S. marcescens A20019): 0.06 µg/mL (≈ 0.165 µM)
- MIC (S. aureus A-9537): 0.03 µg/mL (≈ 0.0823 µM)
- MIC (B. fragilis A22862): 0.06 µg/mL (≈ 0.165 µM)
- MIC (H. influenzae A21518): > 32 µg/mL
- MIC (E. coli A20341-1): 0.03 µg/mL (≈ 0.0823 µM)
- MIC (S. pneumoniae A-9585): 0.03 µg/mL (≈ 0.0823 µM)
- MIC (P. aeruginosa A-9843A): 4 µg/mL (≈ 11 µM)
